Results taken from patent publication US9951033B2, “Tertiary amines for use in the treatment of cardiac disorders” (Universitetet I Oslo, priority 2012, dated 2018).
Like-named read-outs stand apart in the source and are kept apart here.

Columns and labels:
[1] = tested on: metabolically active cells; assay: Cell viability luminescence assay; format: cell-based
Description: Compound toxicity was measured in a luminescence assay that gives a signal proportional to the amount of metabolically active cells in the sample; the assay was performed as described by the supplier. All synthesized compounds were tested in the viability assay, and viability was registered at 24 hours and 72 hours.

[2] = target: GST-AKAP18δ: PLB-biotin interaction (Rattus norvegicus (Rat), UniProt Q6JP77); assay: AKAP18δ-PLB AlphaScreen assay; format: binding
Description: Stable and optimal assay conditions were determined by cross-titrating GST-AKAP18 δ and biotinylated PLB using 10 μg/ml glutathione acceptor beads and 10 μg/ml streptavidin donor beads in an AlphaScreen assay. The excitation wavelength was 680 nm, with the emission wavelength being 520-560 nm. Signal intensity in each well was registered and the optimal concentration to use was chosen to be the concentration prior to the peak of the signal.
Concentrations to give a reliable signal were determined to be between 2 and 16 nM for AKAP18δ-GST and 4 and 20 nM PLB-biotin for relevant preparations of protein, for example 4 nM and 20 nM, respectively.

[3] = tested on: PLB-Ser16 phosphorylation; assay: PLB-Ser16 phosphorylation in rat neonatal cardiomyocytes after isoproterenol stimulation (western blot); format: cell-based; conditions: 24 hours prior to isoproterenol 100 nM, 5 minutes
Description: Based on data from studies in cardiomyocytes assay using a peptide that blocks AKAP18δ-PLB interaction, it was expected that effective compounds would also cause disruption of the AKAP18δ-PLB complex and decrease PLB-Ser^16 phosphorylation (Lygren et al. in EMBO Reports, volume 8, issue 11, page 1061-1067 (2007). A small selection of hits from the derivatized compounds were tested in this cell-based assay, performed as described in Lygren et al.
Briefly, compounds were added to primary cultures of rat neonatal cardiomyocytes were added compounds about 24 hour prior stimulation with isoproterenol, and amount of phosphorylated Ser^16-PLB was analyzed by western blotting using a pSer^16-PLB phosphospecific antibody. Actin was used as a loading control.
Rat neonatal cardiomyocytes treated with compounds 24 hours prior stimulation with isoproterenol (100 nM, 5 minutes).
Following on Example 53, two compounds, 2g and 3d (FIGS. 9A,B and 9C, respectively), were tested in more detail for their ability to interfere with phosphorylation of phospholamban after stimulation of neonatal (FIGS. 9A and 9C) or adult (FIG. 9B) primary cultures of cardiomyocytes.

SERCA2 = SERCA2 (Rattus norvegicus (Rat), UniProt P11507); assay: Patch clamp based SERCA2 activity in adult rat cardiomyocytes; format: cell-based; conditions: mesylate salt, 10 uM, in the presence of cAMP
Description: Adult rat cardiomyocytes were isolated and perfused with external solution (NaCl 125, CsCl 20, D-glucose 5, MgCl2 1, CaCl2 1.8, Hepes 10, 4-aminopyridine 5, probenecid 2, pH 7.4 by NaCH). Cell dialysis was achieved by 1-2 MΩ patch pipettes, filled with (in mM): CsCl 115, TEACl 20, Hepes 10, MgATP 5, Na2-Phosphocreatinine 5, EGTA 0.04, cAMP 0.005, adjusted to pH=7.2 with CsOH. Compound 2g (mesylate salt dissolved in water) was included at a concentration of 10 uM. Whole-cell Ca fluorescence measured from voltage-clamped cells was performed with Cairn Research Optoscan Monochromator (Excitation 488 nm, emission 515 nm long pass) (Cain Research Ltd., Faverham, UK). By applying 100 ms square voltage step from −45 to 0 mV at 0.125 Hz by an Axociamp 2B amplifier (Axon Instruments, Foster City, Calif., USA), basal Ca transients were recorded, and tau values were obtained by monoexponential fitting of the Ca^2+ extrusion phase from regular transients (τ) and caffeine transients (τcaff) after rapid applications of 10 mM caffeine. SERCA2 rate constant were calculated as: k_SERCA=1/τ−1/τcaff.

[4] = Aqueous solubility of tribenzylamine and salts quantified by HPLC (AUC); format: physicochemical; conditions: free base in water
Description: Tribenzylamine and the corresponding salts were dissolved in water and the solubility was quantified (area under curve (AUC)) by HPLC

[5] = average ± standard deviation (n = 3) or ± half range (n = 2), read-out: EC50 (n)
[6] = screening of compound library, read-out: EC50
[7] = average ± standard deviation (n = 3) or ± half range (n = 2), read-out: EC50 in μM (n)

Chain of GST-AKAP18δ: PLB-biotin interaction (Q6JP77 whole entry): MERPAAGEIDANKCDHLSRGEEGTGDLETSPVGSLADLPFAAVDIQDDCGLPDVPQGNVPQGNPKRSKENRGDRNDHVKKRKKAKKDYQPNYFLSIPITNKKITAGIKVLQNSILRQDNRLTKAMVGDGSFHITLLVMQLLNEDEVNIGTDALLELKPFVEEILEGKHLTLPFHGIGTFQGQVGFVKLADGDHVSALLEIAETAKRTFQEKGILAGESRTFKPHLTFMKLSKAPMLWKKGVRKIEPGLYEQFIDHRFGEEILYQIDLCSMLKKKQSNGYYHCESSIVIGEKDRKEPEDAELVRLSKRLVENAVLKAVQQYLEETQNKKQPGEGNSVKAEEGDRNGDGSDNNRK

| SMILES | Viability (100 μM) 24 hours [1] | EC50 [2, 6] [µM] | further results |
| --- | --- | --- | --- |
| Oc1ccc(O)c(CN(Cc2ccncc2)Cc2ccc(F)cc2)c1 [Example 3b] | 0.03 |  | EC50 [2]: approximately the same as for 2b; EC50 [2, 5]: 5.43 ± 1.11 µM |
| Nc1ccc(CN(Cc2ccccc2)Cc2ccc(N)cc2)cc1 |  | 3.8 |  |
| CN(C)c1ccc(CN(Cc2ccccc2)Cc2ccc3c(c2)CCO3)cc1 [Example 3d] | 0.58 |  | effect on PLB phosphorylation in cardiomyocytes [3]: did not appear to have an effect; EC50 [2, 5]: 2.45 ± 0.73 µM; EC50 ([2]; read-out: EC50): 2.79 µM |
| Cc1ccc(CN(Cc2cccc(C(F)(F)F)c2)Cc2nc(C(=O)O)cs2)cc1 |  | 98.3 |  |
| CN(C)c1ccc(CN(Cc2ccccc2)CC(c2ccccc2)c2ccccc2)cc1 [Example 3c] | 0.74 |  | Effect on PLB phosphorylation in cardiomyocytes [3]: +; effect on PLB phosphorylation in cardiomyocytes [3]: somewhat weaker than that of 2g; EC50 [2, 5]: 0.44 ± 0.18 µM; EC50 ([2]; read-out: EC50): 0.327 µM |
| CN(C)c1ccc(CN(Cc2ccccc2)Cc2ccc(N(C)C)cc2)cc1 [Example 2g] | 0.56 |  | SERCA2 activity (SERCA2): increased SERCA2 activity; Effect on PLB phosphorylation in cardiomyocytes [3]: ++; effect on PLB phosphorylation in cardiomyocytes [3]: concentration dependent inhibition of PLB-phosphorylation; EC50 [2, 7]: 1.7 ± 0.91 µM |
| COC(=O)c1ccc(CN(Cc2ccccc2)Cc2ccc(C(=O)OC)cc2)cc1 [Example 2f] | 0.92 |  |  |
| CC(C)(C)c1ccc(CN(Cc2ccncc2)Cc2ccc(F)cc2)cc1 [Example 3a] | 0.79 |  |  |
| O=C(O)c1csc(CN(CCC(c2ccccc2)c2ccccc2)Cc2ccc(F)cc2)n1 |  | 18 |  |
| Fc1ccc(CN(Cc2ccncc2)Cc2ccc(F)cc2)cc1 [Example 2a] | 0.85 |  |  |
| O=C(O)c1ccc(CN(Cc2ccccc2)Cc2ccc(C(=O)O)cc2)cc1 |  | 29.6 |  |
| Nc1ccc(CN(Cc2ccc(N)cc2)Cc2ccc(N)cc2)cc1 |  | 22.2 |  |
| Fc1ccc(CN(Cc2ccccc2)Cc2ccc(-c3ccccc3-c3nn[nH]n3)cc2)cc1 [Example 3g] | 0.80 |  | EC50 [2, 5]: 47.1 µM; EC50 ([2]; read-out: EC50): 47.1 µM |
| Cc1ccc(NC(=O)Nc2ccc(CN(Cc3ccc(NC(=O)Nc4ccccc4)cc3)Cc3ccc(NC(=O)Nc4ccc(C)cc4)cc3)cc2)cc1 |  | 5.2 |  |
| Cc1ccc(CN(Cc2ccc(F)cc2)Cc2nc(C(=O)O)cs2)cc1 |  | 137 |  |
| O=C(O)c1csc(CN(Cc2ccc(F)cc2)Cc2ccc(Cl)cc2)n1 |  | 94.3 |  |
| O=C(Nc1ccc(F)cc1)Nc1ccc(CN(Cc2ccccc2)Cc2ccc(NC(=O)Nc3ccc(F)cc3)cc2)cc1 |  | 9.3 |  |
| O=C(O)c1ccc(CN(Cc2ccccc2)Cc2ccc(F)cc2)cc1 [Example 3f] | 0.98 |  | Effect on PLB phosphorylation in cardiomyocytes [3]: +; effect on PLB phosphorylation in cardiomyocytes [3]: did not appear to have an effect |

| SMILES | Viability (100 μM) 24 hours [1] | EC50 [2, 6] [µM] | further results |
| --- | --- | --- | --- |
| c1ccc(CN(Cc2ccccc2)Cc2ccccc2)cc1 [tribenzylamine, Tribenzylamine] |  |  | AUC Free base [4]: ≈0 mAu*s |
| O=[N+]([O-])c1ccc(CN(Cc2ccccc2)Cc2ccc([N+](=O)[O-])cc2)cc1 |  | 7.5 |  |
| O=C(O)c1csc(CN(CCC(c2ccccc2)c2ccccc2)Cc2ccccc2F)n1 |  | 10.6 |  |
| Oc1ccc(O)c(CN(Cc2ccncc2)Cc2cc(O)ccc2O)c1 [Example 2b] | 0.10 |  | Effect on PLB phosphorylation in cardiomyocytes [3]: −; EC50 [2, 7]: 12.3 ± 3.08 µM |
| O=C(O)c1csc(CN(Cc2cccc(C(F)(F)F)c2)Cc2ccccc2F)n1 |  | 216 |  |
| CN(C)c1ccc(CN(Cc2ccccc2)Cc2ccc(N(C)C)cc2)cc1 [drawing 177] |  | 2 |  |
| CC(C)(C)c1ccc(CN(Cc2ccc(F)cc2)Cc2nc(C(=O)O)cs2)cc1 |  | 41.6 |  |
| O=C(O)c1csc(CN(Cc2ccc(F)cc2)Cc2cccc(C(F)(F)F)c2)n1 |  | 60.5 |  |
| O=C(O)c1csc(CN(Cc2ccc(F)cc2)Cc2cccc(Cl)c2)n1 |  | 36.4 |  |
| Cc1ccc(CN(CCC(c2ccccc2)c2ccccc2)Cc2nc(C(=O)O)cs2)cc1 |  | 35.4 |  |
| CC(C)(C)c1ccc(CN(CCC(c2ccccc2)c2ccccc2)Cc2nc(C(=O)O)cs2)cc1 |  | 21.1 |  |
| COc1ccc(CN(Cc2ccc(F)cc2)Cc2nc(C(=O)O)cs2)cc1 |  | 25.6 |  |
| CC(c1ccccc1)N(Cc1ccc(N(C)C)cc1)Cc1ccc(N(C)C)cc1 (stereo not shown) [Example 2h] | 0.91 |  |  |
| O=C(O)c1csc(CN(Cc2ccc(F)cc2)Cc2ccc(OCc3ccccc3)cc2)n1 |  | 39.5 |  |
| Cc1ccc(NC(=O)Nc2ccc(CN(Cc3ccccc3)Cc3ccc(NC(=O)Nc4ccc(C)cc4)cc3)cc2)cc1 |  | 2.5 |  |
| COC(=O)c1ccc(CN(Cc2ccccc2)Cc2ccc(F)cc2)cc1 [Example 3e] | 0.57 |  |  |
| O=C(Nc1ccccc1)Nc1ccc(CN(Cc2ccccc2)Cc2ccc(NC(=O)Nc3ccccc3)cc2)cc1 |  | 3.6 |  |
| CCN(CC)c1ccc(CN(Cc2ccccc2)Cc2ccc(N(CC)CC)cc2)cc1 |  | 2.9 |  |
